Measurements taken from patent US5312831A, “Urethanes and ureas that induce cytokine production” (American Cyanamid Company, priority 1993, dated 1994).
Read-outs that look alike come from different tables or passages of the source.

Experiments:
[1] = test system: bone marrow CFU-GM; assay: Bone marrow CFU-GM in 5-FU treated mice; assay type: in vivo, mouse
Protocol: Colony forming assays Granulocyte-Macrophage (CFU-GM)--Mice are treated with 150 mg/kg of 5-Fu and treatment with test compound begins 24 hrs. later. On consecutive days, mice are killed by cervical dislocation and the femurs removed under sterile conditions. Femurs are flushed with 1 ml of ice cold medium (Iscove's supplemented with 20% FCS, 1% penicillin-streptomycin, 1% glutamine and 5×10^-5 M 2-mercaptoethanol). Bone marrow cells (5×10^5) are then plated in 12×75 mm tissue culture plates in 3 ml of warm ararose (3%) in Iscove's medium with 100 Units/ml of recombinant mouse GM-CSF purchased from Genzyme (Boston, Mass.). Plates are incubated for 7 days at 37° C. in 5% CO2. After 7 days, colonies of 50 cells or greater are enumerated under a dissecting microscope. 5-Fluorouracil (5-FU) Induced Neutropenia In Mice--Mice are treated ip with 150 mg/kg of the chemotherapy agent 5-FU which induces a severe loss of neutrophils in the peripheral blood 5-6 days later. Twenty-four hrs. after the dose, treatment with the test compounds is initiated. The effect of the test compounds on recovery of neutrophil progenitor cells in the bone marrow is determined by the CFU-GM assay. […]

[2] = test system: bone marrow progenitor cells; assay: Delta assay: expansion of bone marrow progenitor cells in vitro, with c-kit ligand (KL); assay type: cell-based, mouse; settings: for fold induction at 0.5 µg/mL: Mus musculus, Bone marrow cell, 168 h, 7 day in vitro incubation, read-out: Fold Increase in CFU
Protocol: Delta Assay--Mice are treated with a single dose of 5-FU (150 mg/kg ip). Twenty-four hours later, bone marrow cells are removed and split into 2 aliquots. […] After 14 days, the number of colonies is determined (CFU-1). A second aliquot of cells is placed in liquid culture with single growth factors or drugs or combinations of each to assess the ability of these agents to expand the colony forming cell pool. After 7 days in liquid culture, these cells are harvested and plated in soft agar with IL-1 and GM-CSF as with the first aliquot. After 14 days the number of colonies in the second aliquot is determined (CFU-2). The ratio or delta is calculated as CFU-2/CFU-1 and this ratio is used to ascertain the ability of the growth factors and/or drugs used in the liquid phase to induce growth of the colony forming cells (CFU) or differentiation of pre-CFU to CFU.
Bone marrow cells from 5-FU treated mice are used to enrich for early progenitor cells. The cells are split into 2 aliquots as described in the methods section for the "delta assay." The fold increase is determined by measuring the effect of a 7 day in vitro incubation of the cells with tissue culture medium plus test compound and/or growth factor KL on colony forming dells (CFU). The number of CFUs are then compared with colony formation of the fresh bone marrow cells that were not incubated in vitro to determine the fold increase. Test compound is used in vitro at 0.5 μg/ml.

Structure (SMILES): CCCCCCC(=O)N[C@@H](C(=O)O)[C@@H](C)OC(=O)N[C@@H](CCC[C@@H](N)C(=O)O)C(=O)N[C@H](C)C(=O)O [Example 28, [R-(R*,R*)]-N-(R)-6-carboxy-N^2-[[2-carboxy-1-methyl-2-[(1-oxoheptyl)amino]ethoxy]carbonyl]-L-lysyl]-D-Alanine]
- CFU-GM/femur ([1]; 0.1 mg/kg daily s.c., day 3 after 5FU 150 mg/kg, normal 30184 ± 3677, 5-FU only 805 ± 512): 6055 ± 534 CFU-GM/femur
- CFU-GM in the bone marrow (in words) ([1]; 5-FU treated mice): increase of CFU-GM
- fold induction at 0.5 µg/mL ([2]; KL + test compound (0.5 μg/ml)): 158
- fold induction at 0.5 µg/mL ([2]; test compound alone, 0.5 μg/ml, medium alone 0): 1.3
- synergy with c-kit ligand (KL) on growth of bone marrow progenitor cells (in words) ([2]; in vitro): acts synergistically
